*: point of attachment. Palmitoyl = CCCCCCCCCCCCCCCC(=O)*
How the values were obtained:
Assay type in all cases: in vivo, mouse
[1] = system: SAMP1/YitFcsJ mice (Crohn's mice); assay: Cell/marker and cytokine expression in intestinal tissue after systemic (tail vein) injection; conditions: 5 weeks, compared to AIFC-PA6/LDT and untreated control animals
Method: (§1) In order to treat inflammatory lesions that have formed in the intestinal tracts, the following was performed:
Mice (10 weeks of age, female; n=4-7 per group) were brought to the animal holding/surgical room where they were weighed. Animals were placed in a restrainer and independently injected with the aforementioned anti-inflammatory peptide amphiphiles, [AIF-PA1/LDT (treatment; 1 mM) or AIFC-PA6/LDT (control; 1 mM] or untreated/no treatment control group. Approximately 100 μl of solution was injected into the tail vein of the mice. Animals were sacrificed at the 15 weeks of age. Animals were euthanized 5 weeks post-surgery and intestinal tissue was explanted, sectioned and stained with relevant inflammation based antibodies and data was quantified. Gross tissue samples were examined for pathology. Quantified data and results are summarized in FIGS. 4-6.

[2] = system: SAMP1/YitFcsJ mice (Crohn's mice); assay: Inflammatory intestinal lesion size after direct injection into inflamed intestinal lesions; conditions: 5 weeks post-injection, pre- versus post-injection, compared to AIF-PAC and saline injected control animals
Method: as §1
Mice (10 weeks of age, female) were brought to the operating room where they were weighed, the abdomen shaved to remove hair, and given Buprenorphine (0.05 mg/kg) administered subcutaneously. At the time of surgery, anesthesia was induced with isoflurane (2%) with 02 and the mice were prepped with providine-iodine three times prior to initiating the operation. All mice received a 100 mg/kg dose of IP piperacillin/tazobactam IP followed by a midline abdominal incision (1.0-1.5 cm) made in the linea albea to gain access to the peritoneum. The intestines were then identified in the peritoneal cavity. Following intestinal exposure and identification of intestinal lesions, the anti-inflammatory peptide amphiphiles, [AIF-PA1 (treatment; 2 wt/%) or AIF-PAC (control; 2 wt/%)] or saline (control) were independently injected (20-40 μl) into multiple lesions of the several SAMP1/YitFcsJ mice. Following the surgical procedure, organs were relocated to their original anatomical positions. The abdomen was closed in 2 layers (muscle and skin) with 3-0 PDS suture. […] Tissue samples were subsequently quantified, and the results are depicted in FIGS. 1-3.

[3] = system: SAMP1/YitFcsJ mice (Crohn's mice); assay: Cell/marker and cytokine expression in intestinal tissue after direct injection into inflamed intestinal lesions; conditions: 5 weeks post-surgery, compared to AIF-PAC and saline injected control animals
Method: as §1
Mice (10 weeks of age, female) were brought to the operating room where they were weighed, the abdomen shaved to remove hair, and given Buprenorphine (0.05 mg/kg) administered subcutaneously. At the time of surgery, anesthesia was induced with isoflurane (2%) with 02 and the mice were prepped with providine-iodine three times prior to initiating the operation. All mice received a 100 mg/kg dose of IP piperacillin/tazobactam IP followed by a midline abdominal incision (1.0-1.5 cm) made in the linea albea to gain access to the peritoneum. The intestines were then identified in the peritoneal cavity. Following intestinal exposure and identification of intestinal lesions, the anti-inflammatory peptide amphiphiles, [AIF-PA1 (treatment; 2 wt/%) or AIF-PAC (control; 2 wt/%)] or saline (control) were independently injected (20-40 μl) into multiple lesions of the several SAMP1/YitFcsJ mice. Following the surgical procedure, organs were relocated to their original anatomical positions. The abdomen was closed in 2 layers (muscle and skin) with 3-0 PDS suture. After recovery, they were placed back into cages with non-edible bedding and provided ad lib water and liquid diet for the first 7 post-operative days and then returned to ad lib chow. Animals were sacrificed at the 15 weeks of age. Animals were euthanized 5 weeks post-surgery and intestinal tissue was explanted, sectioned and stained with relevant inflammation based antibodies. Tissue samples were subsequently quantified, and the results are depicted in FIGS. 1-3.

## C16-VVVAAAEEEMQMKKVLDS (Palmitoyl-VVVAAAEEEMQMKKVLDS-NH2; SMILES CCCCCCCCCCCCCCCC(=O)N[C@H](C(=O)N[C@H](C(=O)N[C@H](C(=O)N[C@@H](C)C(=O)N[C@@H](C)C(=O)N[C@@H](C)C(=O)N[C@@H](CCC(=O)O)C(=O)N[C@@H](CCC(=O)O)C(=O)N[C@@H](CCC(=O)O)C(=O)N[C@@H](CCSC)C(=O)N[C@@H](CCC(N)=O)C(=O)N[C@@H](CCSC)C(=O)N[C@@H](CCCCN)C(=O)N[C@@H](CCCCN)C(=O)N[C@H](C(=O)N[C@@H](CC(C)C)C(=O)N[C@@H](CC(=O)O)C(=O)N[C@@H](CO)C(N)=O)C(C)C)C(C)C)C(C)C)C(C)C) [AIF-PA1]
[1]
  IFNγ expression: statistically significant decrease
  IL-1β expression: statistically significant decrease
  IL-13 expression: statistically significant decrease
  TNFα expression: statistically significant decrease
[2]
  change in intestinal lesion size: statistically significant decrease
[3]; 2 wt/%, 20-40 μl
  CD68 (macrophages) expression: statistically significant decrease
  MAdCAM1 expression: statistically significant decrease
  anti-inflammatory cytokine IL-10 expression: concomitant increase
  mast cell tryptase (mast cells) expression: statistically significant decrease
[3]
  IFNγ expression: statistically significant decrease
  IL-1β expression: statistically significant decrease
  IL-13 expression: statistically significant decrease
  TNFα expression: statistically significant decrease
